In ChEMBL document CHEMBL4334518, “Discovery and Pharmacological Studies of 4-Hydroxyphenyl-Derived Phosphonium Salts Active in a Mouse Model of Visceral Leishmaniasis” (J Med Chem, 2019):

How the values were obtained:
[1] = system: Leishmania donovani; experiment: Antileishmanial activity against Leishmania donovani MHOM/ET/67/HU3 promastigote after 72 hrs by MTT assay; format: functional, organism-based; settings: MHOM/ET/67/HU3, 72 h
[2] = system: Leishmania donovani; experiment: Antileishmanial activity against Leishmania donovani MHOM/ET/67/HU3 intracellular amastigotes infected in human THP1 cells after 96 hrs by prolong-gold antifade-reagent/DAPI staining based assay; format: functional, organism-based; settings: MHOM/ET/67/HU3, THP-1, 96 h
[3] = Selectivity index, ratio of EC50 for cytotoxicity against human MRC5 cells to EC50 for antileishmanial activity against Leishmania donovani MHOM/ET/67/HU3 amastigotes infected in human THP1 cells; format: toxicity, cell-based; settings: read-out: Ratio EC50
[4] = system: THP-1; experiment: Cytotoxicity against human THP1 cells assessed as reduction in cell viability after 72 hrs by MTT assay; format: cell-based; settings: THP-1, 72 h
[5] = Selectivity index, ratio of EC50 for cytotoxicity against human THP1 cells to EC50 for antileishmanial activity against Leishmania donovani MHOM/ET/67/HU3 amastigotes infected in human THP1 cells; format: toxicity, cell-based; settings: read-out: Ratio EC50
[6] = system: Leishmania infantum; experiment: Antileishmanial activity against Leishmania infantum LEM 3049 isolate promastigote after 72 hrs by MTT assay; format: functional, organism-based
[7] = system: Leishmania infantum; experiment: Antileishmanial activity against Sb 3 resistant Leishmania infantum LEM 3329 isolate promastigote after 72 hrs by MTT assay; format: functional, organism-based
[8] = system: Leishmania infantum; experiment: Antileishmanial activity against MIL resistant Leishmania infantum LEM 5159 isolate promastigote after 72 hrs by MTT assay; format: functional, organism-based
[9] = system: Leishmania infantum; experiment: Antileishmanial activity against MIL/paromomycin resistant Leishmania infantum LEM 2126 isolate promastigote after 72 hrs by MTT assay; format: functional, organism-based
[10] = system: Leishmania infantum; experiment: Antileishmanial activity against Leishmania infantum LEM 3049 isolate intracellular amastigotes infected in human THP1 cells after 96 hrs by prolong-gold antifade-reagent/DAPI staining based assay; format: functional, organism-based; settings: THP-1, 96 h
[11] = system: Leishmania infantum; experiment: Antileishmanial activity against Sb 3 resistant Leishmania infantum LEM 3329 isolate intracellular amastigotes infected in human THP1 cells after 96 hrs by prolong-gold antifade-reagent/DAPI staining based assay; format: functional, organism-based; settings: THP-1, 96 h
[12] = system: Leishmania infantum; experiment: Antileishmanial activity against MIL resistant Leishmania infantum LEM 5159 isolate intracellular amastigotes infected in human THP1 cells after 96 hrs by prolong-gold antifade-reagent/DAPI staining based assay; format: functional, organism-based; settings: THP-1, 96 h
[13] = system: Leishmania infantum; experiment: Antileishmanial activity against MIL/paromomycin resistant Leishmania infantum LEM 2126 isolate intracellular amastigotes infected in human THP1 cells after 96 hrs by prolong-gold antifade-reagent/DAPI staining based assay; format: functional, organism-based; settings: THP-1, 96 h
[14] = in vitro; settings: human, microsomes
[15] = system: Leishmania donovani; experiment: Potency index, ratio of amphotericin B EC50 to test compound EC50 for antileishmanial activity against Leishmania […] amastigote infected in THP1 cells; format: functional

EC50 [2] | Structure (SMILES) | EC50 [1] | EC50 [4] | selectivity ratio [5] | other results
< 200 nM | O=C(O)c1ccc(OCCCCCCCCCC[P+](c2ccccc2)(c2ccccc2)c2ccccc2)cc1O | < 200 nM | – | – | selectivity ratio [3]: 2 to 27
800 nM | O=Cc1ccc(OCCCCCCCCCCCCCC[n+]2cccc3ccccc32)cc1O | – | – | 3.7 to 5 | –
< 1000 nM | COC(=O)c1ccc(OCCCCCCCCCCCCCC[P+](c2ccccc2)(c2ccccc2)c2ccccc2)cc1C | – | – | – | selectivity ratio [3]: 2 to 27
350 nM | OCCCCCCCCCCCCCC[P+](c1ccccc1)(c1ccccc1)c1ccccc1 | 330 nM | 3050 nM | 8.7 | –
800 nM | O=C(OCCCCCCCCCCCC[n+]1cccc2ccccc21)c1ccc(O)cc1O | < 200 nM | – | 3.7 to 5 | –
< 1000 nM | CCOC(=O)c1c(C)cc(OCCCCCCCCCCCCCC[P+](c2ccccc2)(c2ccccc2)c2ccccc2)cc1O | – | – | – | selectivity ratio [3]: 2 to 27
910 nM | CCCCCCCCCCCCCCCCOP(=O)([O-])OCC[N+](C)(C)C [MILTEFOSINE] | 6510 nM | 26200 nM | 28.8 | –
– | O=C(O)Cc1ccccc1Nc1c(Cl)cccc1Cl [DICLOFENAC] | – | – | – | half-life at 2 h, 40 µM [14]: < 30 min
< 200 nM | O=C(O)c1ccc(OCCCCCCCCCCCCCC[P+](c2ccccc2)(c2ccccc2)c2ccccc2)cc1O | < 200 nM | – | – | selectivity ratio [3]: 2 to 27
< 1000 nM | O=C(OCCCCCCCCCCCC[P+](c1ccccc1)(c1ccccc1)c1ccccc1)c1ccc(O)cc1O | < 1000 nM | – | > 10 | –
110 nM | O=C(OCCCCCCCCCCCCCC[P+](c1ccccc1)(c1ccccc1)c1ccccc1)c1ccc(O)cc1O | 40 nM | 3020 nM | 27.6 | –
800 nM | O=C(OCCCCCCCCCCCCCC[n+]1cccc2ccccc21)c1ccc(O)cc1O | < 200 nM | – | 3.7 to 5 | –
100 nM | Cc1cc(O)ccc1C(=O)CCCCCCCCCCCCCCC[P+](c1ccccc1)(c1ccccc1)c1ccccc1.[Br-] | 90 nM | 2450 nM | 24.5 | Ratio EC50 [15]: 2
< 1000 nM | O=Cc1ccc(OCCCCCCCCCCCCCC[P+](c2ccccc2)(c2ccccc2)c2ccccc2)cc1O | – | – | 2 to 27 | –
150 nM | Cc1cc(O)ccc1C(=O)OCCCCCCCCCCCCCC[P+](c1ccccc1)(c1ccccc1)c1ccccc1 | 90 nM | 1840 nM | 12.3 | –
120 nM | Cc1cc(O)ccc1C(=O)OCCCCCCCCCCCCCC[P+](c1ccccc1)(c1ccccc1)c1ccccn1 | 180 nM | 2350 nM | 19.6 | –
< 1000 nM | COC(=O)c1ccc(OCCCCCCCCCC[P+](c2ccccc2)(c2ccccc2)c2ccccc2)cc1O | – | – | 2 to 27 | –
100 nM | Cc1cc(O)ccc1C(=O)CCCCCCCCCCCCCCC[P+](c1ccccc1)(c1ccccc1)c1ccccn1.[Br-] | 280 nM | 2110 nM | 21.1 | Ratio EC50 [15]: 2

Structure (SMILES) | EC50 [2] | EC50 [1] | EC50 [4] | selectivity ratio [5] | other results
C[C@@H]1[C@H](O)[C@@H](C)/C=C/C=C/C=C/C=C/C=C/C=C/C=C/[C@H](O[C@@H]2O[C@H](C)[C@@H](O)[C@H](N)[C@@H]2O)C[C@@H]2O[C@](O)(C[C@@H](O)C[C@@H](O)[C@H](O)CC[C@@H](O)C[C@@H](O)CC(=O)O[C@H]1C)C[C@H](O)[C@H]2C(=O)O [AMPHOTERICIN B] | 240 nM | 130 nM | 27800 nM | 116 | EC50 [6]: 60 nM; EC50 [7]: 70 nM; EC50 [8]: 50 nM; EC50 [9]: 100 nM; EC50 [10]: 170 nM; EC50 [11]: 180 nM; EC50 [12]: 160 nM; EC50 [13]: 160 nM
